According to patent publication US11918693B2, “Ibuprofen and acetaminophen tablet” (GlaxoSmithKline Consumer Healthcare Holdings (US) LLC, priority 2019, dated 2024):

System: patients with moderate-severe pain after ≥3 third molar extractions
Test: Study 2: phase 3 single-dose dental pain study, FDC vs IBU 250 mg, APAP 650 mg and placebo
Assay type: in vivo, human
Conditions: for Dizziness, treatment-emergent adverse event, n (%) / Flushing, treatment-emergent adverse event, n (%) / Headache, treatment-emergent adverse event, n (%) / Nausea, treatment-emergent adverse event, n (%) / Vomiting, treatment-emergent adverse event, n (%): Single-Dose Study 2; for SPID[11]0-8, Tx Diff vs. placebo: first treatment − second treatment, IBU 250 mg, APAP 650 mg; for Number (%) of patients with treatment failure: 12-hour study
Description: Two Studies were performed, both single-center, phase 3, randomized, double-blind, parallel-group, placebo-controlled studies conducted in the United States. Study 2 was a single-dose study whereas Study 3 was a multiple-dose study. The studies were performed in compliance with the ethical principles originating in or derived from the Declaration of Helsinki and in compliance with all International Council for Harmonization Good Clinical Practice Guidelines, as well as all local regulatory requirements.
In Study 2, patients experiencing moderate-severe pain after ≥3 third molar extractions, with at least 2 with partial or complete mandibular impaction, were randomized 3:3:3:1 to receive single-dose FDC IBU/APAP 250 mg/500 mg (administered as 2 tablets of IBU 125 mg/APAP 250 mg), IBU 250 mg alone, APAP 650 mg alone, or placebo under double-blind conditions. Patients self-assessed pain severity and pain relief on site for 12 hours following administration of study medication.
Rescue medication consisted of tramadol hydrochloride 50-100 mg or codeine sulfate 15-60 mg, both immediate release, and patients could administer additional doses every 4-6 hours as needed up to the maximum labeled daily dose. Patients who took rescue medication remained at the study site for the full duration of each study (12 or 48 hours, respectively) and continued to perform assessments.
In both studies 2 and 3, patients were healthy adult males or females aged 18-40 years inclusive, who had undergone surgical extraction of ≥3 third molar teeth (≥2 must have been partial or complete bony mandibular impactions). Other key entry criteria included moderate-severe pain confirmed by a rating of ≥50 mm on a 100-mm visual analog pain severity rating (PSR) scale within approximately 5 hours after completion of surgery and use of only the following preoperative medications/anesthetics: topical benzocaine, a short-acting parenteral local anesthetic (mepivacaine or lidocaine) with or -without a vasoconstrictor and/or nitrous oxide, and no contraindications to the study or rescue medications.
In Study 2, enrolled patients received one of 4 treatments: 1) placebo (administered as 2 tablets); 2) FDC IBU/APAP 250 mg/500 mg (administered as 2 caplets of IBU 125 mg/APAP 250 mg); 3) IBU 250 mg (administered as 2 caplets of IBU 125 mg); or APAP 650 mg (administered as 2 tablets of APAP 325 mg).
At baseline, patients provided self-ratings of pain severity using categorical and numerical PSR scales. The categorical PSR used a 4-point scale (none, mild, moderate, severe), with each category assigned a number from 0 (none) to 3 (severe). Patients reporting at least moderate pain on the categorical PSR at baseline completed a 100-mm visual analog scale. A score of at least 50 mm confirmed eligibility for the study. Additionally, an 11-point (0-10; 0=none to 10=worst possible pain) numerical PSR scale was also used to assess pain.
Once study treatment was administered, the categorical PSR, numerical PSR, and a 5-point categorical pain relief rating scale (0=none, 1=a little, 2=some, 3=a lot, 4=complete) were obtained at predefined assessment times to assess pain and pain relief. In Study 2 (single-dose trial), these assessments were performed at 0.25, 0.5, 1, 1.5, 2, 3, 4, 5, 6, 7, 8, 9, 10, 11, and 12 hours post-treatment. In Study 3 (multiple-dose trial), these assessments were performed at the same time points as in Study 2 up to 12 hours and also at 16, 24, 32, 40, and 48 hours post-treatment Additional evaluations included patient assessments of time to first perceptible pain relief (TFPR), defined as the time that a patient first began to feel any pain-relieving effect whatsoever of the drug and time to meaningful pain relief (TMPR), defined as the time that a patient experienced pain relief that was meaningful to that individual, using the double-stopwatch method, see Mehlisch D R et al., 2010, ibid. […]

[1] = IBU dose 250 mg, APAP dose 650 mg
[2] = Study 2, single oral dose, IBU dose 250 mg, APAP dose 650 mg

Structure (SMILES)	Dizziness, treatment-emergent adverse event, n (%) [1]	Flushing, treatment-emergent adverse event, n (%) [1]	Headache, treatment-emergent adverse event, n (%) [1]	Nausea, treatment-emergent adverse event, n (%) [1]	Vomiting, treatment-emergent adverse event, n (%) [1]	SPID[11]0-8, Tx Diff vs. placebo (Study 2, LSM difference)	Cumulative proportion of treatment failures after 8 hours [2] [%]	Median duration of pain relief (time to treatment failure) [2] [min]	Median time to onset of first perceptible pain relief (TFPR) [2] [min]	Median time to onset of meaningful pain relief (TMPR) [2] [min]	Number (%) of patients with meaningful relief [2]	Number (%) with event, first perceptible pain relief table [2]	SPID[11]0-8, Mean (SD) [2]	SPID[11]0-8, Median [2]	Number (%) of patients with treatment failure [2]	SPID[11]0-8, Tx Diff vs. APAP (Study 2, LSM difference, comparator APAP 650 mg, IBU dose 250 mg)	Median duration of pain relief (median time to treatment failure) [2] [h]
CC(=O)Nc1ccc(O)cc1 [APAP, N-(4-hydroxyphenyl)acetamide]	12 (7.3) n (%)	1 (0.6) n (%)	4 (2.4) n (%)	33 (20.0) n (%)	20 (12.1) n (%)	15.32	51.5	449.0	24.2	56.6	118 (71.5) n (%)	118 (71.5) n (%)	19.4 (20.0)	16.8	105 (63.6) n (%)	–	–
CC(C)Cc1ccc(C(C)C(=O)O)cc1 (centres unmarked) [IBU, 2-(4-isobutylphenyl) propionic acid]	6 (3.4) n (%)	2 (1.1) n (%)	3 (1.7) n (%)	24 (13.7) n (%)	15 (8.6) n (%)	24.42	33.1	608.5	24.6	65.9	139 (79.4) n (%)	139 (79.4) n (%)	28.9 (20.5)	30.5	105 (60.0) n (%)	9.10	10.1
